For 4 compounds, IC50 results are on record in patent US20140148443A1, “Novel Imidazolines as dual inhibitors of MDM2 and MDMX” (priority 2012, published 2014).

One experiment addresses T1, GST-tagged MDMX (Homo sapiens, UniProt O15151).
T1 sequence (O15151 1-490): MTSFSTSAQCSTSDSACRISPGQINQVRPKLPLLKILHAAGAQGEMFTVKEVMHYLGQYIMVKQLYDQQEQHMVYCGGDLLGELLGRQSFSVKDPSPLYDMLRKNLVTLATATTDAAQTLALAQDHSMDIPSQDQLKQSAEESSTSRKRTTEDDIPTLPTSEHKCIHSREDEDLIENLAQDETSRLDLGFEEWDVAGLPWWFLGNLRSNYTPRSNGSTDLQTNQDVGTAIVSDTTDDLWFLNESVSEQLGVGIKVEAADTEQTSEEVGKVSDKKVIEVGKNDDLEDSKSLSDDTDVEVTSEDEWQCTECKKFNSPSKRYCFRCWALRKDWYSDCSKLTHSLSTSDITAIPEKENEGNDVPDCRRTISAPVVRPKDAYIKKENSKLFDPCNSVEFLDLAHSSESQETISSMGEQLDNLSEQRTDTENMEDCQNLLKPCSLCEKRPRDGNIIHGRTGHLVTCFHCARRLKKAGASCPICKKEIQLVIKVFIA
The experiment is described as follows: HTRF binding assay of GST-tagged MDMX to p53 peptide.

For experiment [1], the target named is recombinant GST-tagged MDM2 (Homo sapiens, UniProt Q00987). Briefly: HTRF assay of interaction between p53 peptide and GST-tagged MDM2. The following applies: inhibition of GST-MDM2 (160 ng/ml) binding to biotinylated p53-peptide. In outline: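 Compounds were preincubated with 160 ng/ml GST-MDM2 and 90 nM N-terminally biotinylated p53-like peptide (final) in 20 mM TBS, 0.02% BSA, 1 mM DTT for 1 h at 37 °C. Eu-anti-GST antibody and streptavidin-APC were added for 30 min at room temperature; binding read as TR-FRET at 665 and 615 nm.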
(TR-FRET usually uses a lanthanide donor and a delayed reading to cut background.)

recombinant GST-tagged MDM2, sequence (Q00987 whole entry): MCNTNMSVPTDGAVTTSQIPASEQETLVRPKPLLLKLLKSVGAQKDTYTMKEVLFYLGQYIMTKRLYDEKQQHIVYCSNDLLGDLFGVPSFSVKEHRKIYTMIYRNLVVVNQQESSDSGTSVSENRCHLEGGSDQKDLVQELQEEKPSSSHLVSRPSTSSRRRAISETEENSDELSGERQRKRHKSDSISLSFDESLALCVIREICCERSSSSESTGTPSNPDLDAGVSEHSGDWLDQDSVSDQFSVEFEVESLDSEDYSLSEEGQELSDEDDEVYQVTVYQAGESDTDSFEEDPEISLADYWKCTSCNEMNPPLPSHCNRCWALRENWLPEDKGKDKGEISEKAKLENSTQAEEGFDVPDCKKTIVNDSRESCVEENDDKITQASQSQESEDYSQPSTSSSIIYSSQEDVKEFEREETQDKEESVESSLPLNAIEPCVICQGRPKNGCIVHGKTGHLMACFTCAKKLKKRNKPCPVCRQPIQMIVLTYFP

As usually defined, the IC50 is the concentration that gives 50% inhibition. Regarding `CC(C)Oc1cc(Cl)c(S(=O)(=O)N2C[C@H]3CC[C@@H](C2)O3)cc1C1=N[C@@](C)(c2ccc(Cl)cc2)[C@@](C)(c2ccc(Cl)cc2)N1C(=O)N1CCN(CCCS(C)(=O)=O)CC1` [Example 62, [(4S,5R)-2-{4-Chloro-2-isopropoxy-5-[(1R,5S)-(8-oxa-3-aza-bicyclo[3.2.1]oct-3-yl)sulfonyl]-phenyl}-4,5-bis-(4-chloro-phenyl)-4,5-dimethyl-4,5-dihydro-imidazol-1-yl]-[4-(3-methanesulfonyl-propyl)-piperazin-1-yl]-methanone], the IC50 at GST-tagged MDMX was 193 nM; in experiment [1], 4.8 nM.

Take `CC(C)Oc1cc(Cl)c(S(=O)(=O)NC(C)(C)C)cc1C1=N[C@@](C)(c2ccc(Cl)cc2)[C@@](C)(c2ccc(Cl)cc2)N1C(=O)N1CCN(CCCS(C)(=O)=O)CC1` [Example 63, 5-{(4S,5R)-4,5-Bis-(4-chloro-phenyl)-1-[4-(3-methanesulfonyl-propyl)-piperazine-1-carbonyl]-4,5-dimethyl-4,5-dihydro-1H-imidazol-2-yl}-N-tert-butyl-2-chloro-4-isopropoxy-benzenesulfonamide]: the IC50 on GST-tagged MDMX is 212 nM; in experiment [1], 4.4 nM.

On to `CC(C)Oc1cc(Cl)c(S(N)(=O)=O)cc1C1=N[C@@](C)(c2ccc(Cl)cc2)[C@@](C)(c2ccc(Cl)cc2)N1C(=O)N1CCC(CC(N)=O)CC1` [Example 64, 2-{1-[(4S,5R)-2-(4-Chloro-2-isopropoxy-5-sulfamoyl-phenyl)-4,5-bis-(4-chloro-phenyl)-4,5-dimethyl-4,5-dihydro-imidazole-1-carbonyl]-piperidin-4-yl}-acetamide], for which the IC50 came to 283 nM on GST-tagged MDMX and 6.2 nM in experiment [1].

Take `CC(C)Oc1cc(Cl)c(S(N)(=O)=O)cc1C1=N[C@@](C)(c2ccc(Cl)cc2)[C@@](C)(c2ccc(Cl)cc2)N1C(=O)N1CCN(CCCS(C)(=O)=O)CC1` [Example 65, 5-{(4S,5R)-4,5-Bis-(4-chloro-phenyl)-1-[4-(3-methanesulfonyl-propyl)-piperazine-1-carbonyl]-4,5-dimethyl-4,5-dihydro-1H-imidazol-2-yl}-2-chloro-4-isopropoxy-benzenesulfonamide]: the IC50 at GST-tagged MDMX is 337 nM; in experiment [1] it was 7.7 nM.
